# Measurements taken from patent US8163728B2, “Pyrazoles” (Hoffmann-La Roche Inc., priority 2009, dated 2012).
# Biological target: T1, GABA A α5 (Homo sapiens, UniProt P18507+P31644)
# T1 construct: expressed in transfected cells; host or cells: HEK293 cells, transiently transfected; membranes prepared from cell pellets
# Test: [3H]flumazenil competition binding, human GABA A α5β3γ2 receptors in HEK293 cell membranes
# Settings: human receptor α5β3γ2 transiently transfected in HEK293; 0.5 nM [3H]flumazenil; 1 hour at 4° C.; means of two determinations; read-out: hKi GABA A α5
# Protocol: The affinity of compounds at GABA A receptor subtypes was measured by competition for [3H]flumazenil (85 Ci/mmol; Roche) binding to HEK293 cells expressing rat (stably transfected) or human (transiently transfected) receptors of composition α1β3γ2, α2β3γ2, α3β3γ2 and α5β3γ2.
# Cell pellets were suspended in Krebs-tris buffer (4.8 mM KCl, 1.2 mM CaCl2, 1.2 mM MgCl2, 120 mM NaCl, 15 mM Tris; pH 7.5; binding assay buffer), homogenized by polytron for ca. 20 sec on ice and centrifuged for 60 min at 4° C. (50000 g; Sorvall, rotor: SM24=20000 rpm). The cell pellets were re-suspended in Krebs-tris buffer and homogenized by polytron for ca. 15 sec on ice. Protein was measured (Bradford method, Bio-Rad) and aliquots of 1 mL were prepared and stored at −80° C.
# Assays were incubated to equilibrium for 1 hour at 4° C. and harvested onto GF/C uni-filters (Packard) by filtration using a Packard harvester and washing with ice-cold wash buffer (50 mM Tris; pH 7.5). After drying, filter-retained radioactivity was detected by liquid scintillation counting. Ki values were calculated using Excel-Fit (Microsoft) and are the means of two determinations.
row,Ki [nM],SMILES
1,67.5,"Cc1onc(-c2ccc(F)cc2)c1CNc1cc(C(=O)N2CC3(COC3)C2)n(C)n1 [Example 149, (5-{[3-(4-Fluoro-phenyl)-5-methyl-isoxazol-4-ylmethyl]-amino}-2-methyl-2H-pyrazol-3-yl)-(2-oxa-6-aza-spiro[3.3]hept-6-yl)-methanone]"
2,16.2,"Cc1onc(-c2ccc(F)cn2)c1CNc1cc(C(=O)NC2(C)COC2)n(C)n1 [Example 167, 3-((3-(5-Fluoropyridin-2-yl)-5-methylisoxazol-4-yl)methylamino)-1-methyl-N-(3-methyloxetan-3-yl)-1H-pyrazole-5-carboxamide]"
3,5.2,"Cc1onc(-c2ccc(F)cc2)c1/C=C/c1cc(C(=O)NC(C)C)[nH]n1 [Example 134, 5-{(E)-2-[3-(4-Fluoro-phenyl)-5-methyl-isoxazol-4-yl]-vinyl}-2H-pyrazole-3-carboxylic acid isopropylamide]"
4,25.4,"Cc1onc(-c2ccccn2)c1CNc1cc(C(=O)NC2CCOCC2)n(C)n1 [Example 160, 2-Methyl-5-[(5-methyl-3-pyridin-2-yl-isoxazol-4-ylmethyl)-amino]-2H-pyrazole-3-carboxylic acid (tetrahydro-pyran-4-yl)-amide]"
5,27.6,"CCCCc1noc(C)c1COc1cc(C(=O)NCCO)n(C)n1 [Example 85, 5-(3-Butyl-5-methyl-isoxazol-4-ylmethoxy)-2-methyl-2H-pyrazole-3-carboxylic acid (2-hydroxy-ethyl)-amide]"
6,16.1,"CC(=O)NCCNC(=O)c1cc(OCc2c(-c3ccc(F)cc3)noc2C)nn1C [Example 64, 5-[3-(4-Fluoro-phenyl)-5-methyl-isoxazol-4-ylmethoxy]-2-methyl-2H-pyrazole-3-carboxylic acid (2-acetylamino-ethyl)-amide]"
7,38.7,"CCCCc1noc(C)c1COc1cc(C(=O)NN(C)C)[nH]n1 [Example 38, 5-(3-Butyl-5-methyl-isoxazol-4-ylmethoxy)-2H-pyrazole-3-carboxylic acid N′,N′-dimethylhydrazide]"
8,3.5,"CCC(CO)NC(=O)c1cc(OCc2c(-c3ccc(F)cc3)noc2C)nn1C (single isomer, unassigned; (-)) [Example 69, (−)-5-[3-(4-Fluoro-phenyl)-5-methyl-isoxazol-4-ylmethoxy]-2-methyl-2H-pyrazole-3-carboxylic acid ((R or S)-1-hydroxymethyl-propyl)-amide]"
9,20.5,"Cc1onc(-c2ccccn2)c1COc1cc(C(=O)NC(C)C)nn1C [Example 115, 1-Methyl-5-(5-methyl-3-pyridin-2-yl-isoxazol-4-ylmethoxy)-1H-pyrazole-3-carboxylic acid isopropylamide]"
10,6.5,"Cc1onc(-c2ccc(F)cc2)c1COc1cc(C(=O)NCC(C)(C)O)n(C)n1 [Example 66, 5-[3-(4-Fluoro-phenyl)-5-methyl-isoxazol-4-ylmethoxy]-2-methyl-2H-pyrazole-3-carboxylic acid (2-hydroxy-2-methyl-propyl)-amide]"
11,4.7,"Cc1onc(-c2ccc(F)cc2)c1CNc1cc(C(=O)NC2CCOCC2)n(C)n1 [Example 147, 5-{[3-(4-Fluoro-phenyl)-5-methyl-isoxazol-4-ylmethyl]-amino}-2-methyl-2H-pyrazole-3-carboxylic acid (tetrahydro-pyran-4-yl)-amide]"
12,41.1,"Cc1onc(-c2ccc(F)cn2)c1CNc1cc(C(=O)NC2CC2)n(C)n1 [Example 165, N-Cyclopropyl-3-((3-(5-fluoropyridin-2-yl)-5-methylisoxazol-4-yl)methylamino)-1-methyl-1H-pyrazole-5-carboxamide]"
13,47.3,"Cc1onc(-c2ccccc2)c1COc1cc(C(N)=O)n(C)n1 [Example 45, 2-Methyl-5-(5-methyl-3-phenyl-isoxazol-4-ylmethoxy)-2H-pyrazole-3-carboxylic acid amide]"
14,22,"CCCCc1noc(C)c1COc1cc(C(=O)NC2CCOC(C)(C)C2)[nH]n1 (racemic) [Example 37, Rac-5-(3-Butyl-5-methyl-isoxazol-4-ylmethoxy)-2H-pyrazole-3-carboxylic acid (2,2-dimethyl-tetrahydro-pyran-4-yl)-amide]"
15,4.5,"Cn1nc(OCc2c(-c3ccc(F)cc3)noc2CO)cc1C(=O)NC1CCOC1 (racemic) [Example 97, Rac-5-[3-(4-fluoro-phenyl)-5-hydroxymethyl-isoxazol-4-ylmethoxy]-2-methyl-2H-pyrazole-3-carboxylic acid (tetrahydro-furan-3-yl)-amide]"
16,41.3,"Cc1onc(-c2ccccc2)c1COc1cc(C(=O)N2CCOCC2)[nH]n1 [Example 1, [5-(5-Methyl-3-phenyl-isoxazol-4-ylmethoxy)-2H-pyrazol-3-yl]morpholin-4-yl-methanone]"
17,2,"Cc1onc(-c2ccc(F)cc2)c1COc1cc(C(=O)N[C@@H]2CCCC2O)n(C)n1 (single isomer, unassigned; (+)) [Example 74]"
18,13.6,"Cc1onc(-c2ccc(F)cc2)c1CNc1cc(C(=O)NC(C)C)n(C)n1 [Example 151, 5-{[3-(4-Fluoro-phenyl)-5-methyl-isoxazol-4-ylmethyl]-amino}-2-methyl-2H-pyrazole-3-carboxylic acid isopropylamide]"
19,15.2,"Cc1onc(-c2ccc(F)cc2)c1CNc1cc(C(=O)NCC(F)(F)F)n(C)n1 [Example 146, 5-{[3-(4-Fluoro-phenyl)-5-methyl-isoxazol-4-ylmethyl]-amino}-2-methyl-2H-pyrazole-3-carboxylic acid (2,2,2-trifluoro-ethyl)-amide]"
20,10.4,"CCCCc1noc(C)c1COc1cc(C(=O)NC(CO)CO)[nH]n1 [Example 29, 5-(3-Butyl-5-methyl-isoxazol-4-ylmethoxy)-2H-pyrazole-3-carboxylic acid (2-hydroxy-1-hydroxymethyl-ethyl)-amide]"
21,1.2,"Cc1onc(-c2ccc(F)cn2)c1COc1cc(C(=O)NCC(F)(F)F)[nH]n1 [Example 17, 5-[3-(5-Fluoro-pyridin-2-yl)-5-methyl-isoxazol-4-ylmethoxy]-2H-pyrazole-3-carboxylic acid (2,2,2-trifluoro-ethyl)-amide]"
22,22,"Cc1onc(-c2ccc(F)cc2)c1CNc1cc(C(=O)N2CC3(COC3)C2)[nH]n1 [Example 158, (5-{[3-(4-Fluoro-phenyl)-5-methyl-isoxazol-4-ylmethyl]-amino}-2H-pyrazol-3-yl)-(2-oxa-6-aza-spiro[3.3]hept-6-yl)-methanone]"
23,5.9,"Cc1onc(-c2ccc(F)cn2)c1COc1cc(C(=O)NC2CCOC2)n(C)n1 (racemic) [Example 81, Rac-5-[3-(5-fluoro-pyridin-2-yl)-5-methyl-isoxazol-4-ylmethoxy]-2-methyl-2H-pyrazole-3-carboxylic acid (tetrahydro-furan-3-yl)-amide]"
24,18.2,"Cc1onc(-c2ccccn2)c1COc1cc(C(=O)NC2CCOCC2)nn1C [Example 116, 1-Methyl-5-(5-methyl-3-pyridin-2-yl-isoxazol-4-ylmethoxy)-1H-pyrazole-3-carboxylic acid (tetrahydro-pyran-4-yl)-amide]"
25,40.9,"Cc1onc(-c2ccccc2)c1COc1cc(C(=O)NC(C)C)n(C)n1 [Example 46, 2-Methyl-5-(5-methyl-3-phenyl-isoxazol-4-ylmethoxy)-2H-pyrazole-3-carboxylic acid isopropylamide]"
